Drawing on patent US9850247B2 (Almac Discovery Limited, priority 2013, dated 2017), this text covers IC50 and microsomal CLint for 19 molecules.

A value given as a limit tells only on which side of the number the result lay.

The target of one data set is T1, Wee-1 kinase (Homo sapiens, UniProt P30291).
T1 construct: purchased Invitrogen PV3817
Nature of the data set: Measurement of Wee-1 kinase activity (ADP-Glo luminescent kit). Format: biochemical. Here is the method: Method 1: Measurement of Wee-1 Kinase Activity
In the measurement of Wee-1 activity, a commercial peptide Poly(Lys Tyr (4:1)) hydrobromide was purchased from Sigma Aldrich and used as the substrate. Activated Wee-1 kinase was purchased from Invitrogen (PV3817) and an ADP-Glo luminescent kit was purchased from Promega.
All reactions took place in […] volumes in reaction buffer containing 40 mM Tris-HCl and 20 mM magnesium chloride, supplemented with 0.1 mg/mL bovine serum albumin and 2 mM DTT. Compounds were serially diluted in buffer and 5 μL of each concentration pipetted into a white 384 well plate (Sigma Aldrich M6186). A 5 μL aliquot of the Wee-1 enzyme was added to each well and the plate centrifuged for 1 min to ensure mixing of the enzyme and inhibitor.
The plate was incubated at room temperature for 30 minutes before the addition of 2.0 μg/mL of substrate and 30 μM ATP in a 5 μL aliquot. The plate was centrifuged for one minute and incubated for 1 h at RT.
15 µL of ADP-Glo stop reagent was added to each well to quench the reaction and deplete unconverted ATP. The plate was incubated for a further 40 min in the dark at RT.
30 μL of ADP-Glo kinase detection reagent was added to each well, converting ADP to ATP, catalysing the generation of luciferin by luciferase. The plate was shaken for 1 min, and incubated in the dark for an additional hour.
Luminescence from each well was detected using the Biotek Synergy4 HD plate reader and the percentage inhibition of kinase activity calculated for each inhibitor tested. Positive (kinase only) and negative (no kinase) controls were added to each plate to ensure specific interaction of kinase and inhibitor. The IC50 concentration for each inhibitor was calculated by plotting the percentage kinase inhibition against concentration of inhibitor and the curve generated by non-linear regression fitting.
A general note: In ADP-Glo the light output rises with the ADP produced.

A short description of data set [1]: CLint estimates using human liver microsomes (Method 4). Format: in vitro ADME. Conditions: pH 7.4, 1 μM compound, read-out: Mics - CLint (HLM CLint). The protocol: Method 4: Determination of CLint Estimates Using Human liver microsomes Test compounds (final concentration=1 μM; final DMSO concentration=0.1%) were incubated in 0.1 M phosphate buffer pH 7.4 with human liver microsomes (0.5 mg of protein/mL) at 37° C. Reactions were started by addition of NADPH in 0.1 M phosphate buffer pH 7.4 (final concentration 1 mM). 40 μL aliquots were removed at 2, 5, 10, 15, 20, 30, 40 and 50 min. Reactions were quenched in 80 μL of ice-cold methanol. Samples were subsequently frozen overnight then centrifuged at 3500 rpm for 20 min at 4° C. The supernatants were removed and transferred into analytical plates and analysed by LC/MS/MS. LC/MS/MS Method: All samples were analysed on a Waters Acquity I-Class coupled to a Waters Xevo TQD mass spectrometer. A Waters BEH C18 2.1×50 mm 1.7 μm column was used and mobile phases were water and methanol containing 0.1% formic acid as modifier. Analysis was by multiple reaction monitoring and conditions were optimised for each test compound. Data Analyses: From a plot of 1n peak area against time, the gradient of the line is determined. Subsequently, half-life and intrinsic clearance are calculated using the following equations. [formula] [formula] [formula] where V=Incubation volume (μL)/number of cells Method 5: Determination of Kinetic Solubility (in PBS Buffer)

T1 sequence (P30291 whole entry): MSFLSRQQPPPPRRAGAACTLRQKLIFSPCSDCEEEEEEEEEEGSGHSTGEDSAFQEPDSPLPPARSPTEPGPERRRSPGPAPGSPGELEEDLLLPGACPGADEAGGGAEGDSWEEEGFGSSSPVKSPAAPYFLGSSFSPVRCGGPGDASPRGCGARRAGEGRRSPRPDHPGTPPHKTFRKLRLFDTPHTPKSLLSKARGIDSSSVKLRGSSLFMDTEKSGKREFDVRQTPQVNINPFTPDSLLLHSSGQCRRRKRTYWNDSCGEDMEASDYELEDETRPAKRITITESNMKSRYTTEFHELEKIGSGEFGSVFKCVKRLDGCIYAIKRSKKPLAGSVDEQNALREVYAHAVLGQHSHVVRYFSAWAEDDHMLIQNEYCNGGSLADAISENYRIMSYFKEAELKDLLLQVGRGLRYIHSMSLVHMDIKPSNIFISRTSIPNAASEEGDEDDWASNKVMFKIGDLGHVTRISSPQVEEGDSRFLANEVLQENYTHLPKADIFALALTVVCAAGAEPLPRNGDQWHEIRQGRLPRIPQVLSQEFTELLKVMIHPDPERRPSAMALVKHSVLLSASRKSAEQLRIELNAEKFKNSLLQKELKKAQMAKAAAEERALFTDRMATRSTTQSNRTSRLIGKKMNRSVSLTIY

`CN1CN(c2c(Cl)cccc2Cl)C(=O)c2cnc(Nc3ccc(N4CCCCC4)c(CO)c3)nc21` [Example 131, 3-(2,6-dichlorophenyl)-7-((3-(hydroxymethyl)-4-(piperidin-1-yl)phenyl)amino)-1-methyl-2,3-dihydropyrimido[4,5-d]pyrimidin-4(1H)-one]: the IC50 (commonly the concentration that inhibits the measured activity by half) on Wee-1 kinase was no less than 100 nM. Further, the microsomal CLint at 1 μM in data set [1] is no less than 50 µL/min/mg.
For the molecule `COC[C@@H]1CN(c2ccc(Nc3ncc4c(n3)N(C)CN(c3c(Cl)cccc3Cl)C4=O)cc2)CCN1C` [Example 66, (S)-3-(2,6-dichlorophenyl)-7-((4-(3-(methoxymethyl)-4-methylpiperazin-1-yl)phenyl)amino)-1-methyl-2,3-dihydropyrimido[4,5-d]pyrimidin-4(1H)-one], on Wee-1 kinase, the IC50 lay in the range of 10 to 100 nM. The microsomal CLint at 1 μM in data set [1] is 15 to 50 µL/min/mg.
Regarding `CN1CN(c2c(Cl)cccc2Cl)C(=O)c2cnc(Nc3ccc(N4C[C@@H]5C[C@H]4CN5)cc3)nc21` [Example 39, 7-((4-((1S,4S)-2,5-diazabicyclo[2.2.1]heptan-2-yl)phenyl)amino)-3-(2,6-dichlorophenyl)-1-methyl-2,3-dihydropyrimido[4,5-d]pyrimidin-4(1H)-one], the IC50 on Wee-1 kinase lay in the range of 10 to 100 nM. Further, the microsomal CLint at 1 μM in data set [1] is no more than 15 µL/min/mg.
Taken in the same sequence, the figures for `CNCc1cc(Nc2ncc3c(n2)N(C)CN(c2c(Cl)cccc2Cl)C3=O)ccc1OC` [Example 159, 3-(2,6-dichlorophenyl)-7-((4-methoxy-3-((methylamino)methyl)phenyl)amino)-1-methyl-2,3-dihydropyrimido[4,5-d]pyrimidin-4(1H)-one] were 10 to 100 nM and no more than 15 µL/min/mg.
In the case of `Cc1cc(Nc2ncc3c(n2)N(C)CN(c2c(Cl)cccc2Cl)C3=O)ccc1N1C[C@H]2C[C@@H]1CN2` [Example 118, 7-((4-((1R,4R)-2,5-diazabicyclo[2.2.1]heptan-2-yl)-3-methylphenyl)amino)-3-(2,6-dichlorophenyl)-1-methyl-2,3-dihydropyrimido[4,5-d]pyrimidin-4(1H)-one], the IC50 on Wee-1 kinase fell in the range of 10 to 100 nM. Moreover, in data set [1], the microsomal CLint at 1 μM was no more than 15 µL/min/mg.
`CNCc1cc(Nc2ncc3c(n2)N(C)CN(c2c(Cl)cccc2Cl)C3=O)ccc1-c1ccncc1` [Example 155, 3-(2,6-dichlorophenyl)-1-methyl-7-((3-((methylamino)methyl)-4-(pyridin-4-yl)phenyl)amino)-2,3-dihydropyrimido[4,5-d]pyrimidin-4(1H)-one]: at Wee-1 kinase, the IC50 lay within 10 to 100 nM. Also, the microsomal CLint at 1 μM in data set [1] is no more than 15 µL/min/mg.
For `CC(=O)NCc1cc(Nc2ncc3c(n2)N(C)CN(c2c(Cl)cccc2Cl)C3=O)ccc1N1CCNCC1` [Example 145, N-(5-((6-(2,6-dichlorophenyl)-8-methyl-5-oxo-5,6,7,8-tetrahydropyrimido[4,5-d]pyrimidin-2-yl)amino)-2-(piperazin-1-yl)benzyl)acetamide], the concentration for half-maximal inhibition (IC50) at Wee-1 kinase is 10 to 100 nM. For the same molecule, the microsomal CLint at 1 μM in data set [1] was no more than 15 µL/min/mg.
As for `CN1CCC(Oc2ccc(Nc3ncc4c(n3)N(C)CN(c3c(Cl)cccc3Cl)C4=O)cc2)CC1` [Example 90, 3-(2,6-dichlorophenyl)-1-methyl-7-((4-((1-methylpiperidin-4-yl)oxy)phenyl)amino)-2,3-dihydropyrimido[4,5-d]pyrimidin-4(1H)-one], the half-inhibitory concentration (IC50) on Wee-1 kinase lay within 10 to 100 nM. Also, the microsomal CLint at 1 μM in data set [1] was 15 to 50 µL/min/mg.
Turning to `CN1CC2CN(c3ccc(Nc4ncc5c(n4)N(C)CN(c4c(Cl)cccc4Cl)C5=O)cc3)CC2C1` (centres unmarked) [Example 35, 3-(2,6-dichlorophenyl)-1-methyl-7-((4-(5-methylhexahydropyrrolo[3,4-c]pyrrol-2(1H)-yl)phenyl)amino)-2,3-dihydropyrimido[4,5-d]pyrimidin-4(1H)-one], the half-inhibitory concentration (IC50) at Wee-1 kinase lay within 10 to 100 nM. Also, the microsomal CLint at 1 μM in data set [1] was 15 to 50 µL/min/mg.
As for `COc1cc(Nc2ncc3c(n2)N(C)CN(c2c(Cl)cccc2Cl)C3=O)ccc1N1C[C@@H]2C[C@H]1CN2C` [Example 84, 3-(2,6-dichlorophenyl)-7-((3-methoxy-4-((1S,4S)-5-methyl-2,5-diazabicyclo[2.2.1]heptan-2-yl)phenyl)amino)-1-methyl-2,3-dihydropyrimido[4,5-d]pyrimidin-4(1H)-one], the 50% inhibitory concentration (IC50) at Wee-1 kinase was in the range of 10 to 100 nM. The microsomal CLint at 1 μM in data set [1] was 15 to 50 µL/min/mg.
In the case of `CNCc1cc(Nc2ncc3c(n2)N(C)CN(c2c(Cl)cccc2Cl)C3=O)ccc1N1CCCCC1` [Example 136, 3-(2,6-dichlorophenyl)-1-methyl-7-((3-((methylamino)methyl)-4-(piperidin-1-yl)phenyl)amino)-2,3-dihydropyrimido[4,5-d]pyrimidin-4(1H)-one], the IC50 at Wee-1 kinase is 10 to 100 nM. In addition, the microsomal CLint at 1 μM in data set [1] was no less than 50 µL/min/mg.
For the molecule `CCN1CCN(c2ccc(Nc3ncc4c(n3)N(C)CN(c3c(Cl)cccc3Cl)C4=O)cc2)CC1` [Example 122, 3-(2,6-dichlorophenyl)-7-((4-(4-ethylpiperazin-1-yl)phenyl)amino)-1-methyl-2,3-dihydropyrimido[4,5-d]pyrimidin-4(1H)-one], the half-inhibitory concentration (IC50) on Wee-1 kinase was 10 to 100 nM. Besides, the microsomal CLint at 1 μM in data set [1] was 15 to 50 µL/min/mg.
The matching figures for `CNCc1cc(Nc2ncc3c(n2)N(C)CN(c2c(Cl)cccc2Cl)C3=O)ccc1F` [Example 152, 3-(2,6-dichlorophenyl)-7-((4-fluoro-3-((methylamino)methyl)phenyl)amino)-1-methyl-2,3-dihydropyrimido[4,5-d]pyrimidin-4(1H)-one]: no less than 100 nM and no more than 15 µL/min/mg.
Consider `CN1CN(c2c(Cl)cccc2Cl)C(=O)c2cnc(Nc3ccc(N4CC5CNCC5C4)cc3)nc21` (centres unmarked) [Example 36, 3-(2,6-dichlorophenyl)-7-((4-(hexahydropyrrolo [3,4-c]pyrrol-2(1H)-yl)phenyl)amino)-1-methyl-2,3-dihydropyrimido[4,5-d]pyrimidin-4(1H)-one], for which the IC50 at Wee-1 kinase was in the range of 10 to 100 nM. Moreover, the microsomal CLint at 1 μM in data set [1] is 15 to 50 µL/min/mg.
Regarding `CN1CN(c2c(Cl)cccc2Cl)C(=O)c2cnc(Nc3ccc(N4CCN5CCOC[C@@H]5C4)c(CO)c3)nc21` [Example 133, (S)-3-(2,6-dichlorophenyl)-7-((4-(hexahydropyrazino[2,1-c][1,4]oxazin-8(1H)-yl)-3-(hydroxymethyl)phenyl)amino)-1-methyl-2,3-dihydropyrimido[4,5-d]pyrimidin-4(1H)-one], the concentration for half-maximal inhibition (IC50) on Wee-1 kinase lay within 10 to 100 nM. The microsomal CLint at 1 μM in data set [1] is 15 to 50 µL/min/mg.
In the case of `CN1CN(c2c(Cl)cccc2Cl)C(=O)c2cnc(Nc3ccc(N4CCN(C)[C@H](CO)C4)cc3)nc21` [Example 49, (S)-3-(2,6-dichlorophenyl)-7-((4-(3-(hydroxymethyl)-4-methylpiperazin-1-yl)phenyl)amino)-1-methyl-2,3-dihydropyrimido[4,5-d]pyrimidin-4(1H)-one], on Wee-1 kinase, the IC50 was in the range of 10 to 100 nM. Moreover, the microsomal CLint at 1 μM in data set [1] is 15 to 50 µL/min/mg.
`CN1CN(c2c(Cl)cccc2Cl)C(=O)c2cnc(Nc3ccc(C4(N)CCC4)cc3)nc21` [Example 37, 7-((4-(1-aminocyclobutyl)phenyl)amino)-3-(2,6-dichlorophenyl)-1-methyl-2,3-dihydropyrimido[4,5-d]pyrimidin-4(1H)-one]: the half-inhibitory concentration (IC50) at Wee-1 kinase was 10 to 100 nM. Also, the microsomal CLint at 1 μM in data set [1] is 15 to 50 µL/min/mg.
With `CN1CN(c2c(Cl)cccc2Cl)C(=O)c2cnc(Nc3ccc(N4CCN[C@H](CO)C4)c(F)c3)nc21` [Example 48, (S)-3-(2,6-dichlorophenyl)-7-((3-fluoro-4-(3-(hydroxymethyl)piperazin-1-yl)phenyl)amino)-1-methyl-2,3-dihydropyrimido[4,5-d]pyrimidin-4(1H)-one], the concentration for half-maximal inhibition (IC50) on Wee-1 kinase fell in the range of 10 to 100 nM. For the same molecule, the microsomal CLint at 1 μM in data set [1] is no more than 15 µL/min/mg.
`C[C@@H]1CN(c2ccc(Nc3ncc4c(n3)N(C)CN(c3c(Cl)cccc3Cl)C4=O)c(F)c2)CCN1` [Example 142, (R)-3-(2,6-dichlorophenyl)-7-((2-fluoro-4-(3-methylpiperazin-1-yl)phenyl)amino)-1-methyl-2,3-dihydropyrimido[4,5-d]pyrimidin-4(1H)-one]: the IC50 at Wee-1 kinase was no less than 100 nM. The microsomal CLint at 1 μM in data set [1] is 15 to 50 µL/min/mg.
